# Columns and labels:
# [1] = test system: HeLa cells; format: cell-based; conditions: co-treated with DNMDP, 48 hours
# Method: HeLa cells were co-treated with 30 nM DNMDP (the EC70 concentration) and 20 μM of each bioactive compound. Cell viability after 48-hour treatment was assessed by ATP consumption as described earlier.
# 1000 HeLa cells were plated in a 384-well plate in 40 μl of DMEM supplemented with 10% Fetal Bovine Serum and 1% Pen/Strep. 24 hours after plating, a compound-library of 1600 bioactive molecules (Pharmacon) was added at a concentration of 20 μM. In parallel to bioactive compound incubation, DNMDP was added to a final concentration of 30 nM and incubated for 48 hours. Cell viability was assessed as described in Compound library screening in NCI-H1734 and A549 cell lines.
# [2] = target: T1, PDE3A and SLFN12 (Homo sapiens, UniProt Q14432); assay: Validation of DNMDP-induced PDE3A protein interactions using immunoprecipitation and immunoblotting; format: cell-based; conditions: for PDE3A and SLFN12 complex formation: FIG. 20, affinity reagents, immunoblot; for complex formation of V5-tagged SIRT7 and SLFN12 with PDE3A: HeLa, 10 μM, 4 hours, coimmunoprecipitation (FIG. 19)
# T1 construct: Endogenous PDE3A was immunoprecipitated; host or cells: HeLa
# T1 sequence (Q14432 whole entry): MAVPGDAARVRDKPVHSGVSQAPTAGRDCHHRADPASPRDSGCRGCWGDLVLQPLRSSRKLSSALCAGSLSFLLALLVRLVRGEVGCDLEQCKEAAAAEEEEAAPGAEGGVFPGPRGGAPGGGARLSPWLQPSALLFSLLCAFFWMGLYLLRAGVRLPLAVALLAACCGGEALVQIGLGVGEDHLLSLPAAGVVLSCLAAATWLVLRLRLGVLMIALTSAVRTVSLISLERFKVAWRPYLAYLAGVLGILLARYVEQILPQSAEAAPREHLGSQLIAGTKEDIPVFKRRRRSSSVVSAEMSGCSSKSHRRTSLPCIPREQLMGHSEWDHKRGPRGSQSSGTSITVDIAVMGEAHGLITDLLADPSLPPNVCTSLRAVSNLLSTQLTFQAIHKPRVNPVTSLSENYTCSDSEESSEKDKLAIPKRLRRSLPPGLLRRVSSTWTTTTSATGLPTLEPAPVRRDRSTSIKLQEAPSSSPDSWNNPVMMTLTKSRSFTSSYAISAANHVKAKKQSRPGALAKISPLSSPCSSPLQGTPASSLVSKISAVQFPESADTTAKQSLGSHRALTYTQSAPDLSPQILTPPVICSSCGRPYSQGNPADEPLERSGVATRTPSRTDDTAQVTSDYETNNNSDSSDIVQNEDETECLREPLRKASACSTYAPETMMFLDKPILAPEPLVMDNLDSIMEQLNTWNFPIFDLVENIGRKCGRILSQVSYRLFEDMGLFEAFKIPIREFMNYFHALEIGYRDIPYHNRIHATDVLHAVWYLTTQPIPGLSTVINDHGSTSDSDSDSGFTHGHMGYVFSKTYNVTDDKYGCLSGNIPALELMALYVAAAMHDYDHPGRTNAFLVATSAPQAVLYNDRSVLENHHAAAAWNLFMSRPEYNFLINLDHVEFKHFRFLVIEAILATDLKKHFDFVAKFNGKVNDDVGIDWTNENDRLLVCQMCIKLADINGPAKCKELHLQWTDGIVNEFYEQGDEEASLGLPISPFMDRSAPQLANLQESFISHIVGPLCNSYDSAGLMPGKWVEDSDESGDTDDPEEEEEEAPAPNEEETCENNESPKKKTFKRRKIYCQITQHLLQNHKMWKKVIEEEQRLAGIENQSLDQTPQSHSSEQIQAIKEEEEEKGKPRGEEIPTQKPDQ
# T1 sequence (Q8IYM2 whole entry partner): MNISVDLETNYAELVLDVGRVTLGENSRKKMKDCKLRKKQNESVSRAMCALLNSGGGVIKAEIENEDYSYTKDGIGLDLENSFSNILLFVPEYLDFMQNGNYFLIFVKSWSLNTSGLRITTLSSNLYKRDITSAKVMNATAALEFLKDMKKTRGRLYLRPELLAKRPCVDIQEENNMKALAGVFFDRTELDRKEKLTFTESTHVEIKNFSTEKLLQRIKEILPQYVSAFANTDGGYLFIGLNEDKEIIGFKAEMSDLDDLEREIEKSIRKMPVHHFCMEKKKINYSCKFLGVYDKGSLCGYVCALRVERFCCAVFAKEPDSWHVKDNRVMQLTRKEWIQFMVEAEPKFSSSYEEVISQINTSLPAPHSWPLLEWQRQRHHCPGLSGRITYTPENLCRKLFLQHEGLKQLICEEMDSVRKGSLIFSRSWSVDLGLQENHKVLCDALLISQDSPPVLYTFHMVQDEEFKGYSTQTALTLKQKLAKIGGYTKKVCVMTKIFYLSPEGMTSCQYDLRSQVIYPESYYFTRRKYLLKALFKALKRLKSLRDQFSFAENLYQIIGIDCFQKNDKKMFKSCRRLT
# Method: FIG. 19 is an immunoblot showing that DNMDP induces interaction between PDE3A and SIRT7 and SLFN12 in HeLa cells. HeLa cells were transfected with indicated plasmids and treated with indicated compounds with a final concentration of 10 μM for four hours. Endogenous PDE3A was immunoprecipitated and immunoblotted for V5 to identify novel interaction with SIRT7 and SLFN12 (upper two panels). Immunoprecipitate input was immunoblotted for PDE3A and V5 (lower two panels). V5-SLFN12 was undetectable in whole cell lysate.
# FIG. 20 is an immunoblot showing confirmation of mass spectrometric results herein using affinity reagents.
# HeLa cells were transfected with ORF overexpression constructs expressing V5-tagged SIRT7, V5-tagged SLFN12, or V5-tagged GFP. ORF expression constructs were obtained from the TRC (clone IDs: TRCN0000468231, TRCN0000476272, ccsbBroad304_99997). At 72 hours post transfection, cells were treated with 10 μM DNMDP or trequinsin for 4 hours followed by lysis using the ModRipa lysis buffer and immunoprecipitation of PDE3A. For each condition, 2 mg total protein lysate was incubated with 1 μg of anti-PDE3A antibody at 4° C. overnight, after which 7.5 μl each of Protein A- and Protein G-Dynabeads (Life Technologies 10001D and 10003D) were added and incubated for another 1 hour. Beads were washed and bound proteins were eluted with 30 μl of LDS PAGE gel loading buffer. Input (˜60 μg total protein lysate) and IP products were resolved on 4-12% Tris-Glycine PAGE gels and immunoblotted with an anti-V5 antibody (Life Technologies R96205, 1:5000), the Bethyl anti-PDE3A antibody (1:1000), and secondary antibodies from LiCOR Biosciences (Cat.#926-32210 and 926068021, each at 1:10,000). Blots were washed and imaged using a LiCOR Odyssey infrared imager.
# [3] = target: PDE3A (Homo sapiens, UniProt Q14432); assay: Linker-affinity purification of molecular target of DNMDP and immunoblotting; format: binding; set-up: Immunoprecipitation of endogenous PDE3A in HeLa cells; endogenous in cells; host or cells: HeLa; conditions: HeLa cell lysate, competitor 10 μM, immunoblot for PDE3A
# Sequence of PDE3A (Q14432 whole entry): as the sequence (Q14432 whole entry) above
# Method: To identify the molecular target of DNMDP, an affinity purification was performed using an (R)-des-nitro-DNMDP solid-phase tethered linker analogue (FIG. 10A) incubated with HeLa cell lysate. […] It was competed for the molecular target by adding either an excess of trequinsin or separate enantiomers of DNMDP, where only the (R)-enantiomer was cytotoxic. […] Binding of PDE3A to the linker analogue was blocked by both trequinsin and (R)-DNMDP, but not by the non-cytotoxic enantiomer (S)-[…]. 9C). Thus both trequinsin and (R)-DNMDP prevented the binding of PDE3A to the tethered DNMDP analogue, and it was concluded that both molecules bind PDE3A directly. HeLa cells were washed with ice-cold PBS before lysed with NP-40 lysis buffer (150 mM NaCl, 10% glycerol, 50 mM Tris-Cl pH 8.0, 50 mM MgCl2, 1% NP-40) supplemented with EDTA-free protease inhibitors (Roche) and phosphatase inhibitor mixtures I and II (Calbiochem). […] Samples were washed three times with lysis buffer containing corresponding compound concentrations of 10 μM. Proteins bound to Affi-Gel 102 resin were reduced, denatured, and separated using Tris-Glycine gels (Novex) and transferred to nitrocellulose membranes using the iBlot transfer system (Novex). Membranes were incubated overnight at 4° C. with primary antibodies against PDE3A (1:1000, Bethyl). […]
# [4] = test system: HeLa cells; assay: Caspase activity in HeLa cells (Caspase-Glo); format: cell-based; conditions: DNMDP treatment 48 hours
# Method: 1000 HeLa cells were plated in 384-well plate in 40 μl of corresponding growth media supplemented with 10% Fetal Bovine Serum. 24 hours after plating, indicated compounds were added at indicated concentrations and incubated for 48 hours. Caspase-Glo from Promega was added according to the manufacturers recommendations and luminescence was determined as described in Compound library screening in NCI-H1734 and A549 cell lines.
# [5] = test system: HeLa cells; assay: PARP-cleavage immunoblotting; format: cell-based; conditions: 36 hours
# Method: HeLa cells were treated with indicated concentration of DNMDP and staurosporine for 36 hours. HeLa cells were lysed and processed as described in Linker-affinity purification of molecular target of DNMDP and immunoblotting. Membranes were incubated with an antibody against PARP (1:1000, Cell Signaling #9532) and actin and subsequently imaged as described in Linker-affinity purification of molecular target of DNMDP and immunoblotting.
# [6] = test system: A549 cells; assay: Sensitization of DNMDP-resistant cell line by expression of SLFN12 or SLFN12 and PDE3A; format: cell-based; conditions: A549 expressing SLFN12
# Source text: FIG. 22 is a plot showing sensitization of a DNMDP-resistant cell line by expression of SLFN12 or expression of SFLN12 and PDE3A.
# Adding PDE3A expression led to further sensitization.
Compound,RC50 (the concentration at which it achieved 50% rescue) [1] [nM],PDE3A and SLFN12 complex formation [2],complex formation of V5-tagged SIRT7 and SLFN12 with PDE3A [2],blocking of binding of PDE3A to the tethered linker analogue [3],Caspase activity (caspase-sensitive luciferase assay) [4],PARP cleavage [5],sensitivity of A549 cells upon expression of SLFN12 [6]
"COc1cc2c(cc1OC)-c1c/c(=N\c3c(C)cc(C)cc3C)n(C)c(=O)n1CC2 [trequinsin, 9,10-dimethoxy-3-methyl-2-(2,4,6-trimethylphenyl)imino-6,7-dihydropyrimido[6,1-a]isoquinolin-4-one]",< 1,not,not,blocked,,,
"CCN(CC)c1ccc(C2=NNC(=O)CC2C)cc1[N+](=O)[O-] (stereo not drawn) [DNMDP, 6-(4-(diethylamino)-3-nitrophenyl)-5-methyl-4,5-dihydropyridazin-3(2H)-one]",,induced,enhanced,,detected,detected,sufficient to confer DNMDP sensitivity
